Test results reported in article PMC10783014, “Structure-based virtual screening and in vitro validation of inhibitors of cyclic dinucleotide phosphodiesterases ENPP1 and CdnP” (Microbiology Spectrum, 2023).
pIC50: −log10 of the molar value. ≈ marks a conversion by molar mass, not a printed value. Where “and” joins values, the source holds several entries; their conditions need not be identical. Equal entries are not always repeated. Where two headings read alike, the source gives them in different places.

Tests used:
human ENPP1 = biological target: T1, human ENPP1 (Homo sapiens, UniProt P22413); assay: Luminescence-based AMP-Glo ENPP1 enzyme inhibition assay with 2′,3′-cGAMP substrate; assay type: biochemical; conditions: 2′,3′-cGAMP 300 µM, ENPP1 5 µM
T1 construct: purchased Origene
T1 sequence (P22413 1-925): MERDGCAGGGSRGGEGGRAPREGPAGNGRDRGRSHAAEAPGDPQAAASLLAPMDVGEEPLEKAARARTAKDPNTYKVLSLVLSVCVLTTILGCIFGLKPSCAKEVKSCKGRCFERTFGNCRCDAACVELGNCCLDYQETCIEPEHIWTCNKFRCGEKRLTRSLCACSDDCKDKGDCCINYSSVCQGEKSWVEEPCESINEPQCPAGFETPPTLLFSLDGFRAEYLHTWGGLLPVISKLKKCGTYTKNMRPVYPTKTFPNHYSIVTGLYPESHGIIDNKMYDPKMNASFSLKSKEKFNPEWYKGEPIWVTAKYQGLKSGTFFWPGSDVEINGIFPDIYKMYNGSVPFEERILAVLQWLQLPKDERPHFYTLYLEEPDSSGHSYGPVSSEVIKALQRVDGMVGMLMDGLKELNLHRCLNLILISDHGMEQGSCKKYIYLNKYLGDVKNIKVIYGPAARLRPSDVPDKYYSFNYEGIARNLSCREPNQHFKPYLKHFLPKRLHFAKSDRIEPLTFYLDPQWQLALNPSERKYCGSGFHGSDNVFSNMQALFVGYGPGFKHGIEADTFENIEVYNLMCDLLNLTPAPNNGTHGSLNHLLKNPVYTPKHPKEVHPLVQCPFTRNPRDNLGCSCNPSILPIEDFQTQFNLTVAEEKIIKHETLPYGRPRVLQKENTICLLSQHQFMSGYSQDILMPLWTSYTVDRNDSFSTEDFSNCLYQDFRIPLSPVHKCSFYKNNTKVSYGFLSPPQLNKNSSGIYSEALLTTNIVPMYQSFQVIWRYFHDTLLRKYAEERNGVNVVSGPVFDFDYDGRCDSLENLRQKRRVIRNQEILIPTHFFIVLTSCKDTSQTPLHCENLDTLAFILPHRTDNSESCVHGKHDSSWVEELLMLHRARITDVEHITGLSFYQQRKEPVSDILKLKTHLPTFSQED

Vero cells = assay: Vero cell cytotoxicity, resazurin dye reduction assay; assay type: cell-based, African green monkey; conditions: for IC50: Chlorocebus sabaeus, Vero, 48 h
M.tb CdnP [1] = biological target: T2, M.tb CdnP (Mycobacterium tuberculosis, UniProt P71615); assay: biochemical
T2 sequence (P71615 whole entry, looked up): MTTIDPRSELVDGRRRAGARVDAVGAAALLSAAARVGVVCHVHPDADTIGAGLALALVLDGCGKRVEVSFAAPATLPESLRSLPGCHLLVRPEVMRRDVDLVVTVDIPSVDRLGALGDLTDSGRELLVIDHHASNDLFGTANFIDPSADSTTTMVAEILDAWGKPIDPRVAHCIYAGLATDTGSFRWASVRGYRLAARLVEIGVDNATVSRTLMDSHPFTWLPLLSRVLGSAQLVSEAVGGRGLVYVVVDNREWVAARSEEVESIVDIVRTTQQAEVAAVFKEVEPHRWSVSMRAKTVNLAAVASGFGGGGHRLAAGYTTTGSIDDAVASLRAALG

[2] = system: RAW-Blue IRF3 ISG reporter macrophages; assay: IRF3 induction in RAW-Blue IRF3-SEAP reporter macrophages after 2′,3′-cGAMP transfection (QUANTI-Blue); assay type: cell-based, mouse; conditions: 165 µM E-3 plus 1 nM 2′,3′-cGAMP, 24 h
[3] = system: primary human monocyte-derived macrophages (hMDMs); assay: IFN-β release by human monocyte-derived macrophages after 2′,3′-cGAMP transfection (ELISA); assay type: cell-based
M.tb CdnP [4] = biological target: T2, M.tb CdnP; assay type: biochemical
[5] = Vero cell growth inhibition, 48 h then resazurin overnight, read-out: IC50 Vero cells
[6] = Vero cell growth inhibition, 48 h then resazurin overnight
[7] = 1 nM 2′,3′-cGAMP in the presence of 165 µM E-3, 24 h
[8] = read-out: IC50 Vero cells, Vero cell growth inhibition, 48 h then resazurin overnight

Molecule	pIC50 (human ENPP1)	IC50 (Vero cells; [5])	pIC50 (Vero cells; [5])	pIC50 (M.tb CdnP [1]; IC50 CdnP)	other results
CC(OCCCCOC(C)n1cnc2c(=O)nc[nH]c21)n1cnc2c(=O)nc[nH]c21 (stereo not drawn) [Inhibitor C-13]	< 3.62	> 100 µg/mL	< 3.62	5.02	
NNc1nc(N2CCCCC2)c2[nH]cnc2n1 [Inhibitor C-76]	< 3.37		< 3.37		IC50 ENPP1 (human ENPP1): > 100 µg/mL; IC50 Vero cells (Vero cells; [6]): > 100 µg/mL; IC50 CdnP (M.tb CdnP [1]): 42.9 (10) µg/mL; pIC50 (M.tb CdnP [1]; read-out: IC50 CdnP): 4.37
c1cc2c(cc1C(N1CCNCC1)N1CCNCC1)OCO2 [Inhibitor E-12]	4.39		< 3.48		IC50 ENPP1 (human ENPP1): 12.5 µg/mL (≈ 41.1 µM); IC50 Vero cells (Vero cells; [6]): > 100 µg/mL
O=C(Nc1n[nH]c(NC(=O)c2ccccc2)n1)c1ccccc1 [Inhibitor E-27]	4.79	> 100 µg/mL	< 3.49		
Cc1c2cc[n+](C)cc2c(COC2OC(CO)C(O)C2O)c2c3ccccc3n(C)c12 (stereo not drawn) [Inhibitor C-29]	4.71	> 100 µg/mL	< 3.63	4.85	
Cc1ccc(Nc2nc(N)nc(Nc3ccc4ccccc4c3)n2)cc1 [Inhibitor E-3]	4.58 and 4.53	> 100 µg/mL	< 3.58		IRF induction (SEAP signal) [2]: 1.1 A655 units; fold increased IRF signal versus cGAMP alone [2]: 2.75 fold; IFN-β release [3, 7]: 95 pg/mL; fold increase in IFN-β release versus cGAMP alone [3, 7]: 2.1 fold; IFN-β release ([3]; 165 µM E-3 alone, no cGAMP): 10 pg/mL
O=C(C[N+]12CN3CN(CN(C3)C1)C2)c1ccc2ccccc2c1 [Inhibitor C-5]	< 3.59		3.81		IC50 ENPP1 (human ENPP1): > 100 µg/mL; IC50 Vero cells (Vero cells; [6]): 60 µg/mL; IC50 CdnP (M.tb CdnP [1]): 28.8 (11.2) µg/mL; pIC50 (M.tb CdnP [1]; read-out: IC50 CdnP): 4.54
O=C(NNc1nc(NC2CCCCC2)nc(NC2CCCCC2)n1)c1ccccc1 [Inhibitor E-60]	5.01	> 100 µg/mL	< 3.61		
c-di-AMP					Km (M.tb CdnP [4]): 51.4 µM; Vmax for CdnP (M.tb CdnP [4]): 0.5664 µM/min
O=S(=O)(NN=c1nc(N2CCCC2)[nH]c(N2CCCC2)n1)c1ccccc1 [Inhibitor C-33]	4.22	> 100 µg/mL	< 3.59	4.73	
Cc1ccc(S(=O)(=O)NN=c2nc(N3CCCC3)[nH]c(N3CCCC3)n2)cc1 [Inhibitor C-34]	4.20	> 100 µg/mL	< 3.61	4.88	
NC1CC2NC3CCCCC3NC2CC1N (stereo not drawn) [Inhibitor E-37]	4.35				IC50 (Vero cells; [8]): > 100 µg/mL; pIC50 (Vero cells; [8]): < 3.35
